Measured values as given in US9981959B2, “Thiazolyl and oxazolyl urea, thiourea, guanidine and cyanoguanidine compounds as TrkA kinase inhibitors” (Array BioPharma Inc., priority 2012, dated 2018).

Legend:
Assay in all cases: KinaseProfiler off-target kinase profiling
Format in all cases: biochemical
Conditions in all cases: 10 μM, ATP near Km
[1] = molecular target: T1, AKT2 (Homo sapiens, UniProt P31751)
T1 construct: purchased Millipore (KinaseProfiler service)
Description: (§1) A representative compound of the invention (Example 2) was tested for off-target kinase activity at a concentration of 10 μM by Millipore, Inc. in their KinaseProfiler™ service against all the kinases available in their full kinase panel. The compound was run in duplicate at a concentration of ATP near the Km for each individual kinase according to Millipore's specifications. The results are shown in Table B. Data are reported as percent of control (POC) and are the average of the two replicates.

[2] = molecular target: T2, ARK5 (Homo sapiens, UniProt O60285)
T2 construct: purchased Millipore (KinaseProfiler service)
Description: as §1

[3] = molecular target: T3, Abl2 (Homo sapiens, UniProt P42684)
T3 construct: purchased Millipore (KinaseProfiler service)
Description: as §1

[4] = molecular target: T4, CAMK4 (Homo sapiens, UniProt Q16566)
T4 construct: purchased Millipore (KinaseProfiler service)
Description: as §1

[5] = molecular target: T5, CDK5/p35 (Homo sapiens, UniProt Q00535)
T5 construct: purchased Millipore, Inc. (KinaseProfiler service)
Description: as §1

[6] = molecular target: T6, CDK9/cyclinT1 (Homo sapiens, UniProt P50750)
T6 construct: purchased Millipore, Inc. (KinaseProfiler service)
Description: as §1

[7] = molecular target: T7, CK1gamma1 (Homo sapiens, UniProt Q9HCP0)
T7 construct: purchased Millipore, Inc. (KinaseProfiler service)
Description: as §1

[8] = molecular target: T8, CLK3 (Homo sapiens, UniProt P49761)
T8 construct: purchased Millipore, Inc. (KinaseProfiler service)
Description: as §1

[9] = molecular target: T9, DYRK2 (Homo sapiens, UniProt Q92630)
T9 construct: purchased Millipore, Inc. (KinaseProfiler service)
Description: as §1

[10] = molecular target: T10, EGFR (Homo sapiens, UniProt P00533)
T10 construct: purchased Millipore, Inc. (KinaseProfiler service)
Description: as §1

[11] = molecular target: T11, EphB2 (Homo sapiens, UniProt P29323)
T11 construct: purchased Millipore, Inc. (KinaseProfiler service)
Description: as §1

[12] = molecular target: T12, FAK (Homo sapiens, UniProt Q05397)
T12 construct: purchased Millipore, Inc. (KinaseProfiler service)
Description: as §1

[13] = molecular target: T13, Flt1 (Homo sapiens, UniProt P17948)
T13 construct: purchased Millipore, Inc. (KinaseProfiler service)
Description: as §1

[14] = molecular target: T14, Flt4 (Homo sapiens, UniProt P35916)
T14 construct: purchased Millipore, Inc. (KinaseProfiler service)
Description: as §1

[15] = molecular target: T15, GRK7 (Homo sapiens, UniProt Q8WTQ7)
T15 construct: purchased Millipore, Inc. (KinaseProfiler service)
Description: as §1

[16] = molecular target: T16, IGF-1R (Homo sapiens, UniProt P08069)
T16 construct: purchased Millipore, Inc. (KinaseProfiler service)
Description: as §1

[17] = molecular target: T17, IKKbeta (Homo sapiens, UniProt O14920)
T17 construct: purchased Millipore, Inc. (KinaseProfiler service)
Description: as §1

[18] = molecular target: T18, IRAK1 (Homo sapiens, UniProt P51617)
T18 construct: purchased Millipore, Inc. (KinaseProfiler service)
Description: as §1

[19] = molecular target: T19, JAK3 (Homo sapiens, UniProt P52333)
T19 construct: purchased Millipore, Inc. (KinaseProfiler service)
Description: as §1

[20] = molecular target: T20, KDR (Homo sapiens, UniProt P35968)
T20 construct: purchased Millipore, Inc. (KinaseProfiler service)
Description: as §1

[21] = molecular target: T21, KIT (Homo sapiens, UniProt P10721)
T21 construct: purchased Millipore, Inc. (KinaseProfiler service)
Description: as §1

[22] = molecular target: T22, LIMK1 (Homo sapiens, UniProt P53667)
T22 construct: purchased Millipore, Inc. (KinaseProfiler service)
Description: as §1

[23] = molecular target: T23, MEK1 (Homo sapiens, UniProt Q02750)
T23 construct: purchased Millipore, Inc. (KinaseProfiler service)
Description: as §1

[24] = molecular target: T24, MLK1 (Homo sapiens, UniProt P80192)
T24 construct: purchased Millipore, Inc. (KinaseProfiler service)
Description: as §1

[25] = molecular target: T25, MYLK (Homo sapiens, UniProt Q15746)
T25 construct: purchased Millipore, Inc. (KinaseProfiler service)
Description: as §1

[26] = molecular target: T26, NEK7 (Homo sapiens, UniProt Q8TDX7)
T26 construct: purchased Millipore, Inc. (KinaseProfiler service)
Description: as §1

[27] = molecular target: T27, NLK (Homo sapiens, UniProt Q9UBE8)
T27 construct: purchased Millipore, Inc. (KinaseProfiler service)
Description: as §1

[28] = molecular target: T28, PAK5 (Homo sapiens, UniProt Q9P286)
T28 construct: purchased Millipore, Inc. (KinaseProfiler service)
Description: as §1

[29] = molecular target: T29, PKCdelta (Homo sapiens, UniProt Q05655)
T29 construct: purchased Millipore, Inc. (KinaseProfiler service)
Description: as §1

[30] = molecular target: T30, PKCgamma (Homo sapiens, UniProt P05129)
T30 construct: purchased Millipore, Inc. (KinaseProfiler service)
Description: as §1

[31] = molecular target: T31, PKCtheta (Homo sapiens, UniProt Q04759)
T31 construct: purchased Millipore, Inc. (KinaseProfiler service)
Description: as §1

[32] = molecular target: T32, PKD2 (Homo sapiens, UniProt Q9BZL6)
T32 construct: purchased Millipore, Inc. (KinaseProfiler service)
Description: as §1

[33] = molecular target: T33, PTK5 (Homo sapiens, UniProt P42685)
T33 construct: purchased Millipore, Inc. (KinaseProfiler service)
Description: as §1

[34] = molecular target: T34, Pim-2 (Homo sapiens, UniProt Q9P1W9)
T34 construct: purchased Millipore, Inc. (KinaseProfiler service)
Description: as §1

[35] = molecular target: T35, RIPK2 (Homo sapiens, UniProt O43353)
T35 construct: purchased Millipore, Inc. (KinaseProfiler service)
Description: as §1

[36] = molecular target: T36, ROCK-I (Homo sapiens, UniProt Q13464)
T36 construct: purchased Millipore, Inc. (KinaseProfiler service)
Description: as §1

[37] = molecular target: T37, Ros (Homo sapiens, UniProt P08922)
T37 construct: purchased Millipore, Inc. (KinaseProfiler service)
Description: as §1

[38] = molecular target: T38, SIK (Homo sapiens, UniProt P57059)
T38 construct: purchased Millipore, Inc. (KinaseProfiler service)
Description: as §1

[39] = molecular target: T39, TEC Activated (Homo sapiens, UniProt P42680)
T39 construct: purchased Millipore, Inc. (KinaseProfiler service)
Description: as §1

[40] = molecular target: T40, c-RAF (Homo sapiens, UniProt P04049, Y340D/Y341D)
T40 construct: purchased Millipore, Inc. (KinaseProfiler service)
Description: as §1

[41] = molecular target: T41, p38delta (Homo sapiens, UniProt O15264)
T41 construct: purchased Millipore, Inc. (KinaseProfiler service)
Description: as §1

T29 sequence (Q05655 whole entry): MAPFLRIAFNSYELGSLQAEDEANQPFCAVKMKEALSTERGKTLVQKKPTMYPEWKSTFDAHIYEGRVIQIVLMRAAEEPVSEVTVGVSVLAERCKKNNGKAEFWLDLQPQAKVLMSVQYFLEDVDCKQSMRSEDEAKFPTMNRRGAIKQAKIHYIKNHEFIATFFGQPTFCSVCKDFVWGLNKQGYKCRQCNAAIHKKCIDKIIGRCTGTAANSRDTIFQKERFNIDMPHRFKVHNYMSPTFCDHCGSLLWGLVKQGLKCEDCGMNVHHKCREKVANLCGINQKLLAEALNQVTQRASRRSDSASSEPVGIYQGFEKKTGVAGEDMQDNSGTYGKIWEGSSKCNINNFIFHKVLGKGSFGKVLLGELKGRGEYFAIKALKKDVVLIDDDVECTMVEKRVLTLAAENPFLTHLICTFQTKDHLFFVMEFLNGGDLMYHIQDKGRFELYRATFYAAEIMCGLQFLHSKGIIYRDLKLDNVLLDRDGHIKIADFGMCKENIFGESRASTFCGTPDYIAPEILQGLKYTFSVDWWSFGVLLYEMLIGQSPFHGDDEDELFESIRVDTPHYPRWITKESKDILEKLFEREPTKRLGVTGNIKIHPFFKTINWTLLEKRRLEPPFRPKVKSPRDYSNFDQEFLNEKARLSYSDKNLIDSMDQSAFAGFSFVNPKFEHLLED
T38 sequence (P57059 whole entry): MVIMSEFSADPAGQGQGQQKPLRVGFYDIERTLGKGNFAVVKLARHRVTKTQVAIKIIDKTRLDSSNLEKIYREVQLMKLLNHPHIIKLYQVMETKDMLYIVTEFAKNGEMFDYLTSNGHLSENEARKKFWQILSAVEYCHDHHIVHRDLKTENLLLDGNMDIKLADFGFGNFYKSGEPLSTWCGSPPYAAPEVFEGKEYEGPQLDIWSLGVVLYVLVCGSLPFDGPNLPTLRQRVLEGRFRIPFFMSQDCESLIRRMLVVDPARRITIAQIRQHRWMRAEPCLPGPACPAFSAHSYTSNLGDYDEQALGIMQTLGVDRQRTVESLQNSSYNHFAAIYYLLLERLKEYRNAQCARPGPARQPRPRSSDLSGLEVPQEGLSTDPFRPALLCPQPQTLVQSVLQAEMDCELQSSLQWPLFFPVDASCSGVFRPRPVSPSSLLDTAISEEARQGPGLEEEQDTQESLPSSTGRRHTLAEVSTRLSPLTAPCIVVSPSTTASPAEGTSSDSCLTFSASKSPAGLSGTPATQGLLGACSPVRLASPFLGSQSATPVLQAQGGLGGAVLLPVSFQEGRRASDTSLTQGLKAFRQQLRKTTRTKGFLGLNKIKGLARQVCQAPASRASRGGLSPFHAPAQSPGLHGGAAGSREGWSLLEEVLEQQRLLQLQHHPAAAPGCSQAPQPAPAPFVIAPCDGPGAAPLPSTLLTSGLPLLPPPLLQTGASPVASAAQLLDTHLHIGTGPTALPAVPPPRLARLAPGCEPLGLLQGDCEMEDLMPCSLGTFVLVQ
T5 sequence (Q00535 whole entry): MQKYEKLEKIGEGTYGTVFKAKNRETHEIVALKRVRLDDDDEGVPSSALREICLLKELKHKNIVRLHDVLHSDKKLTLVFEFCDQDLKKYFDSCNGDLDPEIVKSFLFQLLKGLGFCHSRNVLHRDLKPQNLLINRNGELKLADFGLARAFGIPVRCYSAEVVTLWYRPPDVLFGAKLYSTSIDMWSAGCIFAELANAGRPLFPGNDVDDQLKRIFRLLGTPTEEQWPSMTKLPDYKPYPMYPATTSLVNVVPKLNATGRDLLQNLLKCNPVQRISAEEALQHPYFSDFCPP
T5 sequence (Q15078 whole entry partner): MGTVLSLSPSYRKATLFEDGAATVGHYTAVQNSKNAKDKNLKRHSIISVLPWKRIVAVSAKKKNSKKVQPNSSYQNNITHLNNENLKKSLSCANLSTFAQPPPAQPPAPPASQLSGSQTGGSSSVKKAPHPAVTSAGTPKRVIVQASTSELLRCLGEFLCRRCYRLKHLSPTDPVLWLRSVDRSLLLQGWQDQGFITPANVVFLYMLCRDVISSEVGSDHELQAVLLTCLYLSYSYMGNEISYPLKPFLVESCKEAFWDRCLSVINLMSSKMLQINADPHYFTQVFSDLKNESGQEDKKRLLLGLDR
T16 sequence (P08069 31-1367): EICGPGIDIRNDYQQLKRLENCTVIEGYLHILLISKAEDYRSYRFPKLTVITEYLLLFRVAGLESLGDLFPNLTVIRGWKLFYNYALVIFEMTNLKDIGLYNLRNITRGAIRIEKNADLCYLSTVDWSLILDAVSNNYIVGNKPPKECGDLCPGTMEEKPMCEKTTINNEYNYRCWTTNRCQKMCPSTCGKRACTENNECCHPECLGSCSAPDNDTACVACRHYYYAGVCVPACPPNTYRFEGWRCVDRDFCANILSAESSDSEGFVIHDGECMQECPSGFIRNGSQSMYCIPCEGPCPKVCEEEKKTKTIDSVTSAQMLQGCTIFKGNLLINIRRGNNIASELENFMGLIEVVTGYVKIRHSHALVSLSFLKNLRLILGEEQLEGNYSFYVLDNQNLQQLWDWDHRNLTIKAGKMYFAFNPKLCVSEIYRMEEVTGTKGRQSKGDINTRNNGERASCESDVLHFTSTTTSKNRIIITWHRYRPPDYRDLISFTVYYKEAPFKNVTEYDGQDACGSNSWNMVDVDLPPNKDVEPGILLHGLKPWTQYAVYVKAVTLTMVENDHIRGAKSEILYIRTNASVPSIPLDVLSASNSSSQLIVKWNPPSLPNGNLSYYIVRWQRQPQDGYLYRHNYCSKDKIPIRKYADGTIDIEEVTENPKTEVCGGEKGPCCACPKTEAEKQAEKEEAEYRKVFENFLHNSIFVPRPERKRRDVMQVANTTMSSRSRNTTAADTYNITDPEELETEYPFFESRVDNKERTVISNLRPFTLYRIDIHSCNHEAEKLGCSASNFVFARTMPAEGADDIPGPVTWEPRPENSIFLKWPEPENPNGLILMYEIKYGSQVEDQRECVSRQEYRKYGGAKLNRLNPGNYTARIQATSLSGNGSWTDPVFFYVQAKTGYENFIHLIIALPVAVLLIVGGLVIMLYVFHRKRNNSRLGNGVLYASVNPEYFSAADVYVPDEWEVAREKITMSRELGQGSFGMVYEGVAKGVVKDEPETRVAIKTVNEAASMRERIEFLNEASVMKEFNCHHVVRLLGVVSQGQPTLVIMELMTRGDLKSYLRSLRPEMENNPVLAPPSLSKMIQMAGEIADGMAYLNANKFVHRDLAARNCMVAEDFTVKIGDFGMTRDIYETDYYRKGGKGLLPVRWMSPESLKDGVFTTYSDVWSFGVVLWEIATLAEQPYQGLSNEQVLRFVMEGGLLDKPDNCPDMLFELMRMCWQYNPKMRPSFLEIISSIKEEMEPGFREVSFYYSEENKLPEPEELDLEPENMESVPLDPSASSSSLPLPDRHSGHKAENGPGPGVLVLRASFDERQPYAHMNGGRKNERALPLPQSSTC
T1 sequence (P31751 whole entry): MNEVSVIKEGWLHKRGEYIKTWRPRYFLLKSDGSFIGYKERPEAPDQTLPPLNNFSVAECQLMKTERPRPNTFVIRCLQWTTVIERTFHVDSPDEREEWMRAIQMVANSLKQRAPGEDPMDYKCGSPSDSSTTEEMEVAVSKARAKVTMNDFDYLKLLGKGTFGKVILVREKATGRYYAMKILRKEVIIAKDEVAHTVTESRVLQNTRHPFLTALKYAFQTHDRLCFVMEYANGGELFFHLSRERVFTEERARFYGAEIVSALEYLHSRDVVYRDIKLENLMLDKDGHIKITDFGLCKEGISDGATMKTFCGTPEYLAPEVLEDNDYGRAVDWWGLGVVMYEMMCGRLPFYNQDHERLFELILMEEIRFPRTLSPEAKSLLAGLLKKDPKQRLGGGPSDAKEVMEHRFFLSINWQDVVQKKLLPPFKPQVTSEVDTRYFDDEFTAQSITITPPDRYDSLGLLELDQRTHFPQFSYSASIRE
T22 sequence (P53667 whole entry): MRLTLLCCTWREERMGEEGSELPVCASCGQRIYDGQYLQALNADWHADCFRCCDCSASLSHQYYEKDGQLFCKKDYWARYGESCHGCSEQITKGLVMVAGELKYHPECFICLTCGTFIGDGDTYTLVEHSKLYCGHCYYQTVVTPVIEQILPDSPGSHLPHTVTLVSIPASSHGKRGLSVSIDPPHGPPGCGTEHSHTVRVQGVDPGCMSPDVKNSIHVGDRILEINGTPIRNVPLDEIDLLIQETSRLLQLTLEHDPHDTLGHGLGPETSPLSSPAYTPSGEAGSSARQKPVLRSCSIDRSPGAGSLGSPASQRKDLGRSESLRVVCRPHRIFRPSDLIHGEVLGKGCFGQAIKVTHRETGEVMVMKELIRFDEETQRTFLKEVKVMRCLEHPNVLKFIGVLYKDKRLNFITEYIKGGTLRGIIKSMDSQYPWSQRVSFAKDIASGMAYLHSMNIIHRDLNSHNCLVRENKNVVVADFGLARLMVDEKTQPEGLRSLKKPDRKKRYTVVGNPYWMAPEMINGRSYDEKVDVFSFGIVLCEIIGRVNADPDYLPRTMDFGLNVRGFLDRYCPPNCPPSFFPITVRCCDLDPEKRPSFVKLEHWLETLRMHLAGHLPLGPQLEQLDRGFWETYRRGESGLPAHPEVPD
T23 sequence (Q02750 whole entry): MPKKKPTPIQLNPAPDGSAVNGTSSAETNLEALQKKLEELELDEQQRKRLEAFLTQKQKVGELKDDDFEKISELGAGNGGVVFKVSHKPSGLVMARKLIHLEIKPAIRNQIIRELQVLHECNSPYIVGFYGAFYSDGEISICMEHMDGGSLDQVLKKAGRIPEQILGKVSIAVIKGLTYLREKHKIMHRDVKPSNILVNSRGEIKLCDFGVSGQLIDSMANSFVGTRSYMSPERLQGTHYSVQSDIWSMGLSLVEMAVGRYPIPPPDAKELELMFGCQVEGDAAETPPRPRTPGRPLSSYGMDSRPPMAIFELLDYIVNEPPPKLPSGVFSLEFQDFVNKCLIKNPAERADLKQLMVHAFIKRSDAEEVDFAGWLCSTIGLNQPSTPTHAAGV

Cc1c(-c2cnn(C)c2)nn(-c2ccccc2)c1NC(=O)Nc1sc(C(F)(F)F)nc1-c1ccccc1 [Example 2, 1-(1′,4-dimethyl-1-phenyl-1H,1′H-[3,4′-bipyrazol]-5-yl)-3-(4-phenyl-2-(trifluoromethyl)thiazol-5-yl)urea]
Avg POC [1]: 171.5 POC
Avg POC [2]: 102 POC
Avg POC [3]: 136 POC
Avg POC [4]: 132.5 POC
Avg POC [5]: 111 POC
Avg POC [6]: 108 POC
Avg POC [7]: 104 POC
Avg POC [8]: 110.5 POC
Avg POC [9]: 88 POC
Avg POC [10]: 111 POC
Avg POC [11]: 119 POC
Avg POC [12]: 106 POC
Avg POC [13]: 104 POC
Avg POC [14]: 107 POC
Avg POC [15]: 112 POC
Avg POC [16]: 82.5 POC
Avg POC [17]: 112 POC
Avg POC [18]: 107.5 POC
Avg POC [19]: 113 POC
Avg POC [20]: 126 POC
Avg POC [21]: 102.5 POC
Avg POC [22]: 102 POC
Avg POC [23]: 103.5 POC
Avg POC [24]: 95.5 POC
Avg POC [25]: 99 POC
Avg POC [26]: 119.5 POC
Avg POC [27]: 125.5 POC
Avg POC [28]: 131.5 POC
Avg POC [29]: 97 POC
Avg POC [30]: 90 POC
Avg POC [31]: 130 POC
Avg POC [32]: 110.5 POC
Avg POC [33]: 104.5 POC
Avg POC [34]: 142.5 POC
Avg POC [35]: 98 POC
Avg POC [36]: 113 POC
Avg POC [37]: 96.5 POC
Avg POC [38]: 145 POC
Avg POC [39]: 131 POC
Avg POC [40]: 96.5 POC
Avg POC [41]: 104.5 POC
